Results taken from patent publication US9701663B2, “Sulfonamide retinoic acid receptor-related orphan receptor modulators and uses thereof” (INNOV17 LLC, priority 2014, dated 2017).

Legend:
Format in all cases: cell-based
Settings in all cases: 72 h; human CD4+ T cells under TH17-polarizing conditions, 3 days; supernatant ELISA
IL-17A = assay: Human TH17 cytokine inhibition measured by ELISA: IL-17A
Method: (§1) Human TH17 Cytokine Inhibition as Measured by ELISA
(§2) Peripheral blood mononuclear cells (PBMCs) were sourced from freshly prepared leukocyte enriched plasma (buffy coat) from healthy donors (New York Blood Center). PBMCs were isolated by density gradient centrifugation using Ficoll-Paque™ PLUS (GE Healthcare). Human CD4+ T cells were seeded into 96-well plates (5×10^4 cells/well) and activated with plate-bound anti-human (h)-CD3 antibody and soluble h-aCD28 (both at 1 ug/ml; eBioscience) and differentiated into TH17 cells with 20 ng/mL h-IL-6, 5 ng/mL h-TGF-β1, 10 ng/mL h-IL-23 (eBioscience) and 10 ng/mL IL-1 β (Miltenyi Biotec) in serum-free TexMACS Medium (Miltenyi Biotec) supplemented with 1% Penicillin/Streptomycin (Lonza) for 3 days. CD4+ T cells propagated under TH17-polarizing conditions were cultured in the presence or absence of various concentrations of compounds with a final concentration of 0.1% DMSO. Supernatants were collected and stored at −20° C. until assayed for IL-17A, IL-17F and IL-21 levels by “Ready-Set-Go” ELISA kits (eBioscience) as per manufacturer's instructions. Endpoint absorbance was read at 450 nm using a microplate reader (Perkin Elmer).

IL-17F = assay: Human TH17 cytokine inhibition measured by ELISA: IL-17F
Method: as §1, §2

IL-22 = assay: Human TH17 cytokine inhibition measured by ELISA: IL-22
IL-21 = assay: Human TH17 cytokine inhibition measured by ELISA: IL-21
Method: as §1, §2

Structure (SMILES) | IC50 (IL-17A) | IC50 (IL-17F) | IC50 (IL-22) | IC50 (IL-21)
O=S(=O)(c1ccc(Cl)cc1)N1CCC(Cn2ccc3cc(-c4cn[nH]c4)ccc32)CC1 [Example 36, 1-((1-(4-chlorophenylsulfonyl)piperidin-4-yl)methyl)-5-(1H-pyrazol-4-yl)-1H-indole] | < 10 µM | < 10 µM | < 10 µM | < 10 µM
O=S(=O)(c1ccccc1F)N1CCC(Cn2ccc3cc(-c4cn[nH]c4)ccc32)CC1 [Example 40, 1-((1-(2-fluorophenylsulfonyl)piperidin-4-yl)methyl)-5-(1H-pyrazol-4-yl)-1H-indole] | < 10 µM | < 10 µM | < 10 µM | < 10 µM
O=S(=O)(c1cccnc1)N1CCC(Cn2ccc3cc(-c4cn[nH]c4)ccc32)CC1 [Example 38, 5-(1H-pyrazol-4-yl)-1-((1-(pyridin-3-ylsulfonyl)piperidin-4-yl)methyl)-1H-indole] | < 10 µM | < 10 µM | < 10 µM | < 10 µM
CS(=O)(=O)N1CCC(Cn2ccc3cc(-c4cn[nH]c4)ccc32)CC1 [Example 50, 1-((1-(methylsulfonyl)piperidin-4-yl)methyl)-5-(1H-pyrazol-4-yl)-1H-indole] | > 10 µM | > 10 µM | > 10 µM | > 10 µM
CC1(C)CC(Cn2ccc3cc(-c4cn[nH]c4)ccc32)CN1S(=O)(=O)c1ccccc1 (stereo not shown) [Example 29, 1-((5,5-dimethyl-1-(phenylsulfonyl)pyrrolidin-3-yl)methyl)-5-(1H-pyrazol-4-yl)-1H-indole] | < 10 µM | < 10 µM |  | < 10 µM
O=S(=O)(Cc1ccccc1)N1CCC(Cn2ccc3cc(-c4cn[nH]c4)ccc32)CC1 [Example 6, 1-((1-(benzylsulfonyl)piperidin-4-yl)methyl)-5-(1H-pyrazol-4-yl)-1H-indole] | < 10 µM | < 10 µM |  | > 10 µM
O=S(=O)(CC(F)(F)F)N1CCC(Cn2ccc3cc(-c4cn[nH]c4)ccc32)CC1 [Example 8, 5-(1H-pyrazol-4-yl)-1-((1-((2,2,2-trifluoroethyl)sulfonyl)piper-idin-4-yl)methyl)-1H-indole] | > 10 µM | > 10 µM |  | > 10 µM
C[C@H]1C[C@H](Cn2ccc3cc(-c4cn[nH]c4)ccc32)CN1S(=O)(=O)c1ccccc1 (racemic) [Example 48, rac.-trans-1-((-5-methyl-1-(phenylsulfonyl)pyrrolidin-3-yl)methyl)-5-(1H-pyrazol-4-yl)-1H-indole] | < 10 µM | < 10 µM |  | < 10 µM
C[C@@H]1C[C@H](Cn2ccc3cc(-c4cn[nH]c4)ccc32)CN1S(=O)(=O)c1ccccc1 (racemic) [Example 47, rac.-cis-1-((-5-methyl-1-(phenylsulfonyl)pyrrolidin-3-yl)methyl)-5-(1H-pyrazol-4-yl)-1H-indole] | < 10 µM | < 10 µM |  | < 10 µM
O=S(=O)(c1ccccc1)N1CCC(Cn2ccc3cc(-c4cn[nH]c4)ccc32)CC1 [Example 5, 1-((1-(phenylsulfonyl)piperidin-4-yl)methyl)-5-(1H-pyrazol-4-yl)-1H-indole] | < 10 µM | < 10 µM |  | < 10 µM
O=S(=O)(CCc1ccccc1)N1CCC(Cn2ccc3cc(-c4cn[nH]c4)ccc32)CC1 [Example 7, 1-((1-(phenethylsulfonyl)piperidin-4-yl)methyl)-5-(1H-pyrazol-4-yl)-1H-indole] | < 10 µM | < 10 µM |  | < 10 µM
